Test results as given in patent publication US5631394A, “Pharmaceutically active ceramide-related compounds” (The Liposome Company, Inc., priority 1995, dated 1997).

Assays:
Format in all cases: cell-based
A549 cells [1] = assay: sulforhodamine B cytotoxicity assay, 72 hour drug exposure, A549; conditions: Homo sapiens
MCF7 cells = assay: sulforhodamine B cytotoxicity assay, 72 hour drug exposure, MCF7; conditions: Homo sapiens, MCF7, 72 h
MCF7/ADR cells = assay: sulforhodamine B cytotoxicity assay, 72 hour drug exposure, MCF7/ADR; conditions: Homo sapiens, NCI/ADR-RES, 72 h
LEWIS LUNG cells = assay: sulforhodamine B cytotoxicity assay, 72 hour drug exposure, Lewis lung; conditions: Lewis lung carcinoma
CAKI 1 cells = assay: sulforhodamine B cytotoxicity assay, 72 hour drug exposure, CAKI 1; conditions: Homo sapiens, CAKI-1, 72 h
OVCAR 3 cells = assay: sulforhodamine B cytotoxicity assay, 72 hour drug exposure, OVCAR 3; conditions: Homo sapiens, OVCAR-3, 72 h
HT 29 cells = assay: sulforhodamine B cytotoxicity assay, 72 hour drug exposure, HT 29; conditions: Homo sapiens, HT-29, 72 h
SKMEL 28 cells = assay: sulforhodamine B cytotoxicity assay, 72 hour drug exposure, SKMEL 28; conditions: Homo sapiens, SK-MEL-28, 72 h
A549 cells [2] = assay: in vitro sensitivity at different drug exposure times, A549; conditions: Homo sapiens
Protocol: (§1) These studies were performed using a sulforrhodamine B assay (see Monks et al., J. Natl. Cancer Inst. (U.S.) 83:757 ([…])). Compounds were dissolved in ethanol. Results from these studies, presented in the following tables, are expressed as Gl50 values, that is, concentration of a drug (micromolar) required to inhibit growth of fifty percent of the cells.

MCF 7/ADR cells = assay: in vitro sensitivity at different drug exposure times, MCF 7/ADR; conditions: Homo sapiens, NCI/ADR-RES
Protocol: as §1

RPMI 7666 cells = assay: sulforhodamine B cytotoxicity assay, 72 hour drug exposure, RPMI 7666
Protocol: as §1

U937 cells = assay: sulforhodamine B cytotoxicity assay, 72 hour drug exposure, U937; conditions: Homo sapiens, U-937
Protocol: as §1

| Compound | GI50 (A549 cells [2]; 1 hour pulse) [µM] | GI50 (A549 cells [2]; 4 hour pulse) [µM] | GI50 (A549 cells [2]; 8 hour pulse) [µM] | GI50 (A549 cells [2]; 24 hour pulse) [µM] | GI50 (A549 cells [2]; 48 hour pulse) [µM] | GI50 (A549 cells [2]; 72 hour continuous exposure) [µM] | GI50 (A549 cells [1]; A549, 72 h) [µM] | GI50 (MCF7 cells) [µM] | GI50 (MCF7/ADR cells) [µM] | GI50 (LEWIS LUNG cells; 72 h) [µM] | GI50 (OVCAR 3 cells) [µM] | GI50 (HT 29 cells) [µM] | GI50 (MCF 7/ADR cells; 1 hour pulse) [µM] | GI50 (MCF 7/ADR cells; 4 hour pulse) [µM] | GI50 (MCF 7/ADR cells; 8 hour pulse) [µM] | GI50 (MCF 7/ADR cells; 24 hour pulse) [µM] | GI50 (MCF 7/ADR cells; 48 hour pulse) [µM] | GI50 (MCF 7/ADR cells; 72 hour continuous exposure) [µM] | further results |
| --- | --- | --- | --- | --- | --- | --- | --- | --- | --- | --- | --- | --- | --- | --- | --- | --- | --- | --- | --- |
| CCCCCCCCCCCCC/C=C/[C@@H](O)[C@H](CO)NCCCCCCCCCC | – | – | – | – | – | – | 4.99 ± 0.08 | 5.13 ± 0.01 | 6.19 ± 0.43 | 6.71 ± 1.04 | 12.5 ± 0.85 | 14.5 ± 0.14 | – | – | – | – | – | – | GI50 (CAKI 1 cells): 6.18 ± 0.01 µM; GI50 (SKMEL 28 cells): 13 µM |
| CCCCCCCCCCCCC/C=C/[C@@H](O[Si](C)(C)C(C)(C)C)[C@H](CO[Si](C)(C)C(C)(C)C)NC(=O)CCCCC [1,3-DiTBDMS C6-Ceramide, 1,3 DiTBDMS C6 Cer] | – | – | – | – | – | – | – | – | – | – | – | – | – | – | – | – | – | – | GI50 (A549 cells [1]): > 200 µM; GI50 (RPMI 7666 cells): > 200 µM; GI50 (U937 cells): 134 ± 28.8 µM; GI50 (LEWIS LUNG cells): > 200 µM |
| CCCCCCCCCCCCC/C=C/[C@@H](OC(C)=O)[C@H](COC(C)=O)NC(=O)CCCCC [1,3-Diacetate C6-Ceramide] | – | – | – | – | – | – | 6.1 ± 1.1 | 15.5 ± 0.2 | 42.9 ± 3.6 | 4.9 ± 0.5 | – | – | – | – | – | – | – | – | – |
| CCCCCCCCCCCCC/C=C/C(=O)[C@H](COC(C)=O)NC(=O)CCCCC [1-Acetate-3-one C6-Cer, 1-acetate-3-one C6-Cer] | – | – | – | – | – | – | 14.4 ± 0.1 | 6.7 ± 0.1 | 14.7 ± 0.1 | 14.5 ± 0.1 | 15.3 ± 0.1 | 13.9 ± 0.2 | – | – | – | – | – | – | – |

The next lines start with results.

| GI50 (A549 cells [2]; 1 hour pulse) [µM] | GI50 (A549 cells [2]; 4 hour pulse) [µM] | GI50 (A549 cells [2]; 8 hour pulse) [µM] | GI50 (A549 cells [2]; 24 hour pulse) [µM] | GI50 (A549 cells [2]; 48 hour pulse) [µM] | GI50 (A549 cells [2]; 72 hour continuous exposure) [µM] | Compound | GI50 (A549 cells [1]; A549, 72 h) [µM] | GI50 (MCF7 cells) [µM] | GI50 (MCF7/ADR cells) [µM] | GI50 (LEWIS LUNG cells; 72 h) [µM] | GI50 (OVCAR 3 cells) [µM] | GI50 (HT 29 cells) [µM] | GI50 (MCF 7/ADR cells; 1 hour pulse) [µM] | GI50 (MCF 7/ADR cells; 4 hour pulse) [µM] | GI50 (MCF 7/ADR cells; 8 hour pulse) [µM] | GI50 (MCF 7/ADR cells; 24 hour pulse) [µM] | GI50 (MCF 7/ADR cells; 48 hour pulse) [µM] | GI50 (MCF 7/ADR cells; 72 hour continuous exposure) [µM] | further results |
| --- | --- | --- | --- | --- | --- | --- | --- | --- | --- | --- | --- | --- | --- | --- | --- | --- | --- | --- | --- |
| 31.2 ± 5 | 12.8 ± 1 | 6.7 ± 0.2 | 5 ± 0.1 | 4.8 ± 0.1 | 5 | CCCCCCCCCCCCC/C=C/[C@@H](O)[C@H](CO)NCCCCCCCC | 4.91 ± 0.01 | 4.88 ± 0.11 | 4.88 ± 0.04 | 5.05 ± 0.02 | 5.41 ± 0.13 | 5.72 ± 0.24 | 34.3 ± 4.2 | 14.2 ± 1.2 | 8.9 ± 0.2 | 4.8 ± 0.1 | 4.62 ± 0.1 | 5 ± 0.1 | GI50 (CAKI 1 cells): 4.64 ± 0.07 µM; GI50 (SKMEL 28 cells): 4.96 ± 0.03 µM |
| 92.9 ± 1.3 | 44.1 ± 1.3 | 35.3 ± 2.5 | 7.2 ± 0.2 | 4.35 ± 0.1 | 5.1 ± 0.1 | CCCCCCCCCCCCC/C=C/[C@@H](O)[C@H](COC(C)=O)NC(=O)CCCCC [1-Acetate C6-Ceramide, 1-acetate, C6-ceramide] | 12.7 ± 7.6 | – | – | 8.5 ± 0.4 | – | – | > 100 | 59.5 ± 1.4 | 42.7 ± 1.2 | 19.5 ± 0.8 | 15.6 ± 0.9 | 16.7 ± 1.7 | GI50 (RPMI 7666 cells): 9 ± 2 µM; GI50 (U937 cells): 11.3 ± 1 µM |
| > 100 | 52.9 ± 2.5 | 36.5 ± 0.8 | 8.6 ± 0.6 | 4.7 ± 0.1 | 5.5 ± 0.2 | CCCCCCCCCCCCC/C=C/[C@@H](O)[C@H](COC(=O)CCC)NC(=O)CCCCC [1-Butyrate C6-Ceramide, 1-butyrate, C6-ceramide] | 6.2 ± 0.4 | 17.9 ± 10 | 37.8 ± 8.06 | 6.4 ± 2.4 | – | – | > 100 | 79.1 ± 5.3 | 44 ± 1.1 | 20.8 ± 1.8 | 17.2 ± 0.1 | 18.5 ± 0.4 | – |
| > 100 | > 100 | 40.2 ± 2.5 | 8.4 ± 0.7 | 5.2 ± 0.3 | 5.6 ± 0.2 | CCCCCCCCCCCCC/C=C/[C@@H](O)[C@H](COC(=O)C(C)C)NC(=O)CCCCC [1-Isobutyrate C6-Ceramide, 1-isobutyrate, C6-ceramide] | 7.9 ± 3.5 | – | 37.8 ± 4.67 | – | – | – | > 100 | > 100 | 52.3 ± 1.6 | 22.7 ± 1.1 | 18.7 ± 0.5 | 19.6 ± 1 | – |
